Experimental data taken from PubChem BioAssay AID2060612 (Molecular Pharmacology Branch, DTP, NCI, 2025).
Values joined by “and” are separate entries in the source; they are usually repeats but may differ in a detail not shown here. Equal values may be shown once.

Test system: 565232-114-T-J1-PDC complex spheroid viability
Assay: Anticancer human tumor 565232-114-T-J1-PDC patient-derived bladder carcinoma cell line growth inhibition [CLK]
Details: for viability, T/C: stronger effect = lower value
Description: A high-throughput screen of multi-cell type tumor spheroids was designed to identify active combinations of […] and targeted small molecules. Complex spheroids include a stromal component modeled by human endothelial cells (HUVEC) and fibroblasts modeled by human mesenchymal stem cells (MSCs). The concentration ranges selected for each drug and investigational agent were based upon clinically achievable concentrations if the clinical Cmax of the agent was known.
Compounds. The drugs and investigational agents: cirtuvivint (SM08502; NSC835563), CC-671 (NSC850746), vemurafenib (NSC761431), tapotoclax (NSC804041), sotorasib (NSC818433), adagrasib (NSC831453), MRTX-1133 (NSC836407), BAY2416964 (NSC825713), copanlisib (NSC816437), inavolisib (NSC800729), abemaciclib (NSC768073), osimertinib (NSC779217), entinostat (NSC756642), eltanexor (KPT-8602, NSC794443), venetoclax (NSC766270), ceralasertib (NSC777638), bortezomib (NSC756655), olaparib (NSC753686), talazoparib (NSC767125), alisertib (NSC759677), peposertib (NSC802822), gemcitabine (NSC613327), 5-fluorouracil (NSC19893), SN-38 (NSC673596), oxaliplatin (NSC266046), paclitaxel (NSC125973), and doxorubicin (NSC123127), were obtained from the National Cancer Institute (NCI) Developmental Therapeutics Program Chemical Repository. The FDA-approved anticancer drug set is available from the Developmental Therapeutics Program at https://dtp.cancer.gov/organization/dscb/obtaining/available plates.htm. […] The stock solutions were prepared in dimethyl sulfoxide (DMSO, Sigma-Aldrich, St. Louis, MO, cat. D2650), except for the platinum complexes which were prepared in saline (Quality Biological, Gaithersburg, MD, cat. 114-055-101), at 800-fold the tested concentration and stored at -70 degrees C prior to their use. All drugs and investigational agents were tested over a range starting from a high concentration at or near the clinical Cmax and decreasing in half-log increments. If the clinical Cmax for an agent had not been determined, the highest concentration tested was 10 microM.
Cell Culture. All cells were maintained in an incubator at 37 degrees C and 5% CO2 with 95% humidity. The PDC lines were cultured according to standard operating procedures established by the NCI PDMR. Briefly, all PDCs were thawed and cultured in Matrigel-coated flasks prepared with a working solution of 1X Ham's F-12 nutrient mix, without supplementation (Invitrogen, Waltham, MA, cat. 11765054), 100 U/mL penicillin-streptomycin (Invitrogen, cat. 15140122), and 2.5% Matrigel (Corning Inc., Corning, NY, cat. 354248) for the first three passages. The 947758-054-R-J2-PDC line was cultured in 6B/Colon 1A media, which includes advanced DMEM/F-12 (Thermo Fisher Scientific, cat. 12634028), 10 mM HEPES (Thermo Fisher Scientific, cat. 15630080), 1X GlutaMAX supplement (Thermo Fisher Scientific, cat. 35050061), 0.1 mg/mL primocin (InvivoGen, cat. ant-pm-2), 10% defined fetal bovine serum, heat inactivated (HyClone Laboratories Inc., cat. SH30070.03HI), 1.25 mM N-Acetyl-L-cysteine (Sigma-Aldrich, cat. A9165), 10 mM nicotinamide (Sigma-Aldrich, cat. N0636), 1X B-27 supplement (Thermo Fisher Scientific, cat. 17504044), 1X N-2 supplement (Thermo Fisher Scientific, cat. 17502048), and 10 microM Y-27632 dihydrochloride (Tocris Bioscience, cat. 1254). The 876862-298-R-J1-PDC was cultured in 6E media, which includes all 6B/Colon 1A media components plus 50% L-WRN conditioned media (ATCC, cat. CRL-3276), 50 ng/mL recombinant human EGF recombinant protein (hEGF; Thermo Fisher Scientific, cat. PHG0311), 10 ng/mL recombinant human fibroblast growth factor 10 (hGFG-10; PeproTech, cat. 100-26), 1 ng/mL recombinant human fibroblast growth factor 2 (hFGF-2; PeproTech, cat. 100-18B), and 1 µM prostaglandin E2 (PGE2; Tocris, cat. 2296). The 227483-062-R1-J1-PDC line was cultured in Panc media, containing all 6E components except hFGF-2, with the addition of 500 nM SB-431542 (Selleckchem, cat. S1067) and 10 nM gastrin (Tocris, cat. 3006). […]

[1] = curve of first compound, second compound 0.0316 µM
[2] = curve of first compound, second compound 0.1 µM
[3] = curve of first compound, second compound 0.316 µM
[4] = curve of first compound, second compound 1 µM
[5] = curve of first compound, second compound 3.16 µM
[6] = curve of first compound, second compound 10 µM
[7] = second compound 0.0316 µM, first compound 0.00949 µM
[8] = second compound 0.0316 µM, first compound 0.03 µM
[9] = second compound 0.0316 µM, first compound 0.0949 µM
[10] = second compound 0.0316 µM, first compound 0.3 µM
[11] = second compound 0.1 µM, first compound 0.00949 µM
[12] = second compound 0.1 µM, first compound 0.03 µM
[13] = second compound 0.1 µM, first compound 0.0949 µM
[14] = second compound 0.1 µM, first compound 0.3 µM
[15] = second compound 0.316 µM, first compound 0.00949 µM
[16] = second compound 0.316 µM, first compound 0.03 µM
[17] = second compound 0.316 µM, first compound 0.0949 µM
[18] = second compound 0.316 µM, first compound 0.3 µM
[19] = second compound 1 µM, first compound 0.00949 µM
[20] = second compound 1 µM, first compound 0.03 µM
[21] = second compound 1 µM, first compound 0.0949 µM
[22] = second compound 1 µM, first compound 0.3 µM
[23] = second compound 3.16 µM, first compound 0.00949 µM
[24] = second compound 3.16 µM, first compound 0.03 µM
[25] = second compound 3.16 µM, first compound 0.0949 µM
[26] = second compound 3.16 µM, first compound 0.3 µM
[27] = second compound 10 µM, first compound 0.00949 µM
[28] = second compound 10 µM, first compound 0.03 µM
[29] = second compound 10 µM, first compound 0.0949 µM
[30] = second compound 10 µM, first compound 0.3 µM
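Further: spheroids exposed to compounds for 7 days before readout.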
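Wherever viability, T/C is given: 100% = DMSO vehicle wells with luminescence normalized to vehicle control.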

## NC(=O)C(=Cn1cnc(-c2cc(C(F)(F)F)cc(C(F)(F)F)c2)n1)c1cncnc1 + CNC(=O)c1ccc(Nc2nc(OC3CCCC3)c3c(-c4ccc5nc(C)oc5c4)c[nH]c3n2)c(OC)c1
[1]
  IC50: 240 nM
[2]
  IC50: < 9.49 nM
[3]
  IC50: < 9.49 nM
[4]
  IC50: < 9.49 nM
[5]
  IC50: < 9.49 nM
[6]
  IC50: < 9.49 nM
[7]
  viability, T/C: 105%
[8]
  viability, T/C: 103%
[9]
  viability, T/C: 124%
[10]
  viability, T/C: 35.5%
Second compound 0.0316 µM, first compound 0.949 µM
  viability, T/C: 1.65%
Second compound 0.0316 µM, first compound 3 µM
  viability, T/C: 0.39%
[11]
  viability, T/C: 44.5%
[12]
  viability, T/C: 42.2%
[13]
  viability, T/C: 28.9%
[14]
  viability, T/C: 10.7%
Second compound 0.1 µM, first compound 0.949 µM
  viability, T/C: 1%
Second compound 0.1 µM, first compound 3 µM
  viability, T/C: 0.65%
[15]
  viability, T/C: 29.7%
[16]
  viability, T/C: 29.7%
[17]
  viability, T/C: 27.1%
[18]
  viability, T/C: 8.97%
Second compound 0.316 µM, first compound 0.949 µM
  viability, T/C: 1.36%
Second compound 0.316 µM, first compound 3 µM
  viability, T/C: 1.61%
[19]
  viability, T/C: 21.2%
[20]
  viability, T/C: 24%
[21]
  viability, T/C: 19.4%
[22]
  viability, T/C: 5.67%
Second compound 1 µM, first compound 0.949 µM
  viability, T/C: 0.48%
Second compound 1 µM, first compound 3 µM
  viability, T/C: 1.21%
[23]
  viability, T/C: 16.4%
[24]
  viability, T/C: 17.2%
[25]
  viability, T/C: 13.8%
[26]
  viability, T/C: 4.75%
Second compound 3.16 µM, first compound 0.949 µM
  viability, T/C: 1.02%
Second compound 3.16 µM, first compound 3 µM
  viability, T/C: 0.26%
[27]
  viability, T/C: 16.3%
[28]
  viability, T/C: 16.8%
[29]
  viability, T/C: 11.7%
[30]
  viability, T/C: 4.97%
Second compound 10 µM, first compound 0.949 µM
  viability, T/C: 0.49%
Second compound 10 µM, first compound 3 µM
  viability, T/C: 0.34%

## CC(C)CC(NC(=O)C(Cc1ccccc1)NC(=O)c1cnccn1)B(O)O (stereo not drawn) + CNC(=O)c1ccc(Nc2nc(OC3CCCC3)c3c(-c4ccc5nc(C)oc5c4)c[nH]c3n2)c(OC)c1
[1]
  IC50: 4.66 nM
[2]
  IC50: 1.01 nM
[3]
  IC50: < 0.949 nM
[4]
  IC50: < 0.949 nM
[5]
  IC50: < 0.949 nM
[6]
  IC50: < 0.949 nM
Second compound 0.0316 µM, first compound 0.000949 µM
  viability, T/C: 81%
Second compound 0.0316 µM, first compound 0.003 µM
  viability, T/C: 80.1%
[7]
  viability, T/C: 1.47%
[8]
  viability, T/C: 0.95%
[9]
  viability, T/C: 0.67%
[10]
  viability, T/C: 1.42%
Second compound 0.1 µM, first compound 0.000949 µM
  viability, T/C: 50.7%
Second compound 0.1 µM, first compound 0.003 µM
  viability, T/C: 42.4%
[11]
  viability, T/C: 1.02%
[12]
  viability, T/C: 0.74%
[13]
  viability, T/C: 0.79%
[14]
  viability, T/C: 0.53%
Second compound 0.316 µM, first compound 0.000949 µM
  viability, T/C: 31.1%
Second compound 0.316 µM, first compound 0.003 µM
  viability, T/C: 24.6%
[15]
  viability, T/C: 0.97%
[16]
  viability, T/C: 0.75%
[17]
  viability, T/C: 3.5%
[18]
  viability, T/C: 0.65%
Second compound 1 µM, first compound 0.000949 µM
  viability, T/C: 22.1%
Second compound 1 µM, first compound 0.003 µM
  viability, T/C: 23.1%
[19]
  viability, T/C: 0.93%
[20]
  viability, T/C: 0.66%
[21]
  viability, T/C: 0.67%
[22]
  viability, T/C: 1.42%
Second compound 3.16 µM, first compound 0.000949 µM
  viability, T/C: 19.6%
Second compound 3.16 µM, first compound 0.003 µM
  viability, T/C: 12.3%
[23]
  viability, T/C: 0.72%
[24]
  viability, T/C: 1.66%
[25]
  viability, T/C: 0.65%
[26]
  viability, T/C: 1.37%
Second compound 10 µM, first compound 0.000949 µM
  viability, T/C: 19.5%
Second compound 10 µM, first compound 0.003 µM
  viability, T/C: 10.6%
[27]
  viability, T/C: 1.82%
[28]
  viability, T/C: 0.61%
[29]
  viability, T/C: 0.51%
[30]
  viability, T/C: 1.99%

## CCCS(=O)(=O)Nc1ccc(F)c(C(=O)c2c[nH]c3ncc(-c4ccc(Cl)cc4)cc23)c1F
Compound 0.0316 µM
  viability, T/C: 81.4%
Compound 0.1 µM
  viability, T/C: 88.2%
Compound 0.316 µM
  viability, T/C: 101%
Compound 1 µM
  viability, T/C: 104%
Compound 3.16 µM
  viability, T/C: 113%
Compound 10 µM
  viability, T/C: 21.5%
Curve of compound
  IC50: 6490 nM

## Nc1ccn(C2OC(CO)C(O)C2(F)F)c(=O)n1 (stereo not drawn)
Compound 0.0316 µM
  viability, T/C: 95.5% and 50.3%
Compound 0.1 µM
  viability, T/C: 57% and 17.7%
Compound 0.316 µM
  viability, T/C: 36.3% and 10.3%
Compound 1 µM
  viability, T/C: 35.6% and 9.39%
Compound 3.16 µM
  viability, T/C: 37.5% and 13%
Compound 10 µM
  viability, T/C: 39.9% and 13.2%
Curve of compound
  IC50: 151 nM and 31.8 nM
